{
  "source": "ChEMBL document CHEMBL1201862",
  "about": "“PubChem BioAssay data set” (2004)",
  "key": {"[1]": {"system": "Escherichia coli", "assay": "microbe, parasite or virus in culture"}, "[2]": {"target": "T1, Short transient receptor potential channel 4 (Mus musculus, UniProt Q9QUQ5)", "T1 sequence (Q9QUQ5 whole entry)": "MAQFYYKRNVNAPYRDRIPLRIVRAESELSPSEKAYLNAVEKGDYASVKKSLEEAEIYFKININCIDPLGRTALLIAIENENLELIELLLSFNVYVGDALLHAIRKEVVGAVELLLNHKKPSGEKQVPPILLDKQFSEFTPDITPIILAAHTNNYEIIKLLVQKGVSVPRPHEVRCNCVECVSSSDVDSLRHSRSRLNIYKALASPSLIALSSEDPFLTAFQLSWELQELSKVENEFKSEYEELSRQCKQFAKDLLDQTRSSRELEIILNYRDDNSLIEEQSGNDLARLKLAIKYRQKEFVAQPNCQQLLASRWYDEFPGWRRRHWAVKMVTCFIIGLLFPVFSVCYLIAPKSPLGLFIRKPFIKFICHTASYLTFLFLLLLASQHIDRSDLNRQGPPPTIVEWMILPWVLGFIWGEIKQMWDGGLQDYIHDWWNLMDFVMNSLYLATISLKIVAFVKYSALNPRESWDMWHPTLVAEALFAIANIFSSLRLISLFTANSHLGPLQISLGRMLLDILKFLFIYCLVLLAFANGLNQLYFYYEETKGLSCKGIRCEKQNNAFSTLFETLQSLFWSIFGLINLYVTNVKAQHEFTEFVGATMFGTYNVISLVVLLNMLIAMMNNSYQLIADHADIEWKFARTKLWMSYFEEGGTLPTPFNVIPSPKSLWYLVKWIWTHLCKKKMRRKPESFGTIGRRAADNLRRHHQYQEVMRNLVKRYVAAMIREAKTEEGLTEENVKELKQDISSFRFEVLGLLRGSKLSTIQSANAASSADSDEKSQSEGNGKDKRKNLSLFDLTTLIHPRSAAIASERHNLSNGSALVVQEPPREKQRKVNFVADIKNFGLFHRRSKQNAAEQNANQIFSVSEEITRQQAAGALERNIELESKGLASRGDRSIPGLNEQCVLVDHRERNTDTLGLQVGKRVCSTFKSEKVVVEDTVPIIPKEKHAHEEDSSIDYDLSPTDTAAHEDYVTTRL", "assay": "SAR Analysis for the identification of selective inhibits of the transient receptor potential cation channel C4 (TRPC4): Automated Electrophysiology_2. [Related pubchem assays (depositor defined):AID2256]", "type": "functional"}, "[3]": {"target": "T2, Cytochrome P450 1A2 (Homo sapiens, UniProt P05177)", "T2 sequence (P05177 whole entry)": "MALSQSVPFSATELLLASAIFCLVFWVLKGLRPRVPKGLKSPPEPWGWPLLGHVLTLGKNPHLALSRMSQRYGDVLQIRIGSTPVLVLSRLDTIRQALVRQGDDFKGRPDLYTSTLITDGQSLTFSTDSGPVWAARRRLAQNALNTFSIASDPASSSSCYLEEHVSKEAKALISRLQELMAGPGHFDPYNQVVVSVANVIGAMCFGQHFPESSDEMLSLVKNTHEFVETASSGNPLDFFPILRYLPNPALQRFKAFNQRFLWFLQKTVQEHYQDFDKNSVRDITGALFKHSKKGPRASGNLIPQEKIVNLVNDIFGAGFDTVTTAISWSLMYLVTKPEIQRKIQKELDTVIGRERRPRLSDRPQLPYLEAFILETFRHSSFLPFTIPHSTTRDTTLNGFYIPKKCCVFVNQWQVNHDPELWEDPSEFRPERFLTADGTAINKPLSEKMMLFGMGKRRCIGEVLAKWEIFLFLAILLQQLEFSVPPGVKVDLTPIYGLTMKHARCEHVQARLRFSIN"}, "[4]": {"target": "Cytochrome P450 2C9 (Homo sapiens, UniProt P11712)", "sequence (P11712 whole entry)": "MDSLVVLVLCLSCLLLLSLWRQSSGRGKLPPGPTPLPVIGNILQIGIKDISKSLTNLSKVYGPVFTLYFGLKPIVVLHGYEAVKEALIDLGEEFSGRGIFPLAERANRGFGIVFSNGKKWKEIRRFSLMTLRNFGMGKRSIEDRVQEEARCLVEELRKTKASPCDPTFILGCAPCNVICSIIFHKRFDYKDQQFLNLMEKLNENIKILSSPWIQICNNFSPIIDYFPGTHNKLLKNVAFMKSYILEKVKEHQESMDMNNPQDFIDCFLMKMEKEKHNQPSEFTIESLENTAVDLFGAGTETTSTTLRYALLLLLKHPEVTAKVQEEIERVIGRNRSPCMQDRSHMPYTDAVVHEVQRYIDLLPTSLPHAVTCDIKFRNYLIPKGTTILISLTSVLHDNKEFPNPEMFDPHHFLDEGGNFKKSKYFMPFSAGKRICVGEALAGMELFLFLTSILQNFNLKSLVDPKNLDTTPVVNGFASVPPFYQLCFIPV"}, "[5]": {"target": "Cytochrome P450 2C19 (Homo sapiens, UniProt P33261)", "sequence (P33261 whole entry)": "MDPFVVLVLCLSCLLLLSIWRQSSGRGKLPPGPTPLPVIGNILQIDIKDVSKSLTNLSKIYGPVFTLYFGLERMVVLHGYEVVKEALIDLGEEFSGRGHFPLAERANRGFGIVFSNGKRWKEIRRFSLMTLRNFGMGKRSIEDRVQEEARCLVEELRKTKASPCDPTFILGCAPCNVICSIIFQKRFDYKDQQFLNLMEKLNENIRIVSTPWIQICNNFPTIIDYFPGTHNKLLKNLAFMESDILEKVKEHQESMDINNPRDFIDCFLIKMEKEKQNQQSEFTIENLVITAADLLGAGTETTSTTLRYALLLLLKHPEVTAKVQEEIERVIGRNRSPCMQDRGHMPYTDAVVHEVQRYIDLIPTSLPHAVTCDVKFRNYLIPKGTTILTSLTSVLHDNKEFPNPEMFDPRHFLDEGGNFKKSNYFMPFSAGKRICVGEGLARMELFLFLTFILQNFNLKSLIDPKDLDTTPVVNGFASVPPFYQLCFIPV", "assay": "Cytochrome panel assay with activity outcomes. Panel member name: p450-cyp2c19 Compounds with AC50 equal or less than 10 uM are considered active", "type": "functional"}, "[6]": {"target": "5-hydroxytryptamine receptor 5A (Homo sapiens, UniProt P47898)", "sequence (P47898 whole entry)": "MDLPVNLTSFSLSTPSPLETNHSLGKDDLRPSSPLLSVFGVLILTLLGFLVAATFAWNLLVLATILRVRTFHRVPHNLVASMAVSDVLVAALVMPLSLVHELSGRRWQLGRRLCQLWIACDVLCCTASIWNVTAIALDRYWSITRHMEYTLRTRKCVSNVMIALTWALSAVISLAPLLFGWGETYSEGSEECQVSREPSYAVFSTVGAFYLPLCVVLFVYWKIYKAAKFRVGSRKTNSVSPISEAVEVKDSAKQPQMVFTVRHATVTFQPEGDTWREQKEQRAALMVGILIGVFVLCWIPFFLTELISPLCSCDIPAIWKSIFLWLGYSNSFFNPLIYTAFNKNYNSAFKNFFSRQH", "assay": "Counterscreen for agonists of OPRM1-OPRD1 heterodimerization: luminescence-based cell-based high throughput dose response assay to identify agonists of 5-hydroxytryptamine (serotonin) 5A receptor (HTR5A). [Related pubchem assays (depositor defined):AID504326, AID504355, AID504692, AID504904, AID504905]", "type": "functional"}, "[7]": {"target": "Delta-type opioid receptor (Homo sapiens, UniProt P41143)", "sequence (P41143 whole entry)": "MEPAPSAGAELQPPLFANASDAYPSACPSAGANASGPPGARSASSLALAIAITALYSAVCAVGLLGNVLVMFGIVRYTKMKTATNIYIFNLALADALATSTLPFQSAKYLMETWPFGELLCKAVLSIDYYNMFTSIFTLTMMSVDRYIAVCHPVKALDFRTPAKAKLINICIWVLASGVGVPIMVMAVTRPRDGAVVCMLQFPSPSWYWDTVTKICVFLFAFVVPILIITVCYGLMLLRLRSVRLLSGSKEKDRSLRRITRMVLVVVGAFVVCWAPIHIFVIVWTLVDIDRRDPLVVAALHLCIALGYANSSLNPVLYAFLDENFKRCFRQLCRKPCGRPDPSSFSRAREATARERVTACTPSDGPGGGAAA", "assay": "Counterscreen for agonists of heterodimerization of the mu 1 (OPRM1) and delta 1 (OPRD1) opioid receptors: Luminescence-based cell-based high throughput dose response assay to identify agonists of OPRD1 homodimerization. [Related pubchem assays (depositor defined):AID504326, AID504355, AID504692, AID504904, AID504905]", "type": "functional"}, "[8]": {"target": "Mu-type opioid receptor (Homo sapiens, UniProt P35372)", "sequence (P35372 whole entry)": "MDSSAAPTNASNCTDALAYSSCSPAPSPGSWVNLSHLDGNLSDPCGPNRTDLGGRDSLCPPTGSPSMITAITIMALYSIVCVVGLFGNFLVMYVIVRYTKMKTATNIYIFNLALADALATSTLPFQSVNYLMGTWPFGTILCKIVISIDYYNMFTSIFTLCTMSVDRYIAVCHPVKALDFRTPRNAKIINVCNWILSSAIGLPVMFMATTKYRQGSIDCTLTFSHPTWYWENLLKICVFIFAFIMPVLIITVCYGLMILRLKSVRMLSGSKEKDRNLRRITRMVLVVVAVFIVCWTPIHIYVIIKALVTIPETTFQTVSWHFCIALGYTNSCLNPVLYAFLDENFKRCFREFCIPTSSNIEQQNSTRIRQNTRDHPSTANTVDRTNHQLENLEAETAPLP", "assay": "Counterscreen for agonists of heterodimerization of the mu 1 (OPRM1) and delta 1 (OPRD1) opioid receptors: Luminescence-based cell-based high throughput dose response assay to identify agonists of OPRM1 homodimerization.", "type": "functional"}, "[9]": {"system": "HEK293", "assay": "cells", "details": "Homo sapiens"}, "[10]": {"system": "HEK293", "assay": "cells", "details": "Homo sapiens", "remark": "listed apart in the source"}, "[11]": {"system": "Vero", "assay": "cells", "type": "functional, cell-based", "details": "Chlorocebus sabaeus"}, "[12]": {"assay": "NIH3T3 cell viability loss – ATP luminescence, mouse fibroblasts, counter-screen, dose response (AID 2010);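 note: cells exposed to compound for about 90 hours before reading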", "type": "functional, cell-based"}, "[13]": {"assay": "Trypanosoma cruzi growth suppression in host cells – NIH3T3 host cells, beta-gal luminescence, confirmation (AID 2044);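 note: luminescent beta-galactosidase reporter signal from transgenic T. cruzi replicating inside host cells; inhibitors lower the luminescence signal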", "type": "functional, cell-based"}, "[14]": {"assay": "cells", "type": "functional"}},
  "note": "Calls of active or inactive are those of the source.",
  "data": [
    {"smiles": "COc1ccc(C(=O)C2(C)N(O)C(C)C(c3cccs3)=[N+]2[O-])cc1", "note": "(centres undefined)", "values": [
      {"measurement": "AC50", "setting": "[1]", "value": "> 380 µM (inactive)"}
    ]},
    {"smiles": "COc1ccccc1N1CCN(c2cc(C)c3ccccc3n2)CC1", "values": [
      {"measurement": "IC50", "setting": "[2]", "value": "9.89 µM (active)"}
    ]},
    {"smiles": "CS(=O)(=O)N1CCC2(CC1)CN(c1ccc(-c3ccccc3)cc1)C2", "values": [
      {"measurement": "AC50", "setting": "[3]", "value": "inconclusive"},
      {"measurement": "AC50", "setting": "[4]", "value": "inconclusive"},
      {"measurement": "AC50", "setting": "[5]", "value": "inconclusive"}
    ]},
    {"smiles": "COc1ccc(-c2csc(N(CCCN(C)C)C(=O)c3cccs3)n2)cc1", "values": [
      {"measurement": "EC50", "setting": "[6]", "value": "> 92.5 µM (inactive)"},
      {"measurement": "EC50", "setting": "[7]", "value": "> 92.5 µM (inactive)"},
      {"measurement": "EC50", "setting": "[8]", "value": "> 92.5 µM (inactive)"}
    ]},
    {"smiles": "O=C(Nc1ccccc1Cl)c1ccccc1CC(O)(c1ccccc1)c1ccccc1", "values": [
      {"measurement": "EC50", "setting": "[9]", "value": "> 59.7 µM (inactive)"},
      {"measurement": "EC50", "setting": "[10]", "value": "> 59.7 µM (inactive)"}
    ]},
    {"smiles": "O=C1c2cccc3cc([N+](=O)[O-])cc(c23)C(=O)N1c1ccccc1O", "values": [
      {"measurement": "IC50", "setting": "[11]", "value": "2.35 µM (active)"},
      {"measurement": "EC50", "setting": "[12]", "value": "9.05 µM (active)"},
      {"measurement": "EC50", "setting": "[13]", "value": "354 nM (active)"},
      {"measurement": "IC50", "setting": "[14]", "value": "> 50 µM (active)"}
    ]}
  ]
}
